# Assay results from US20090291857A1, “METHODS TO IDENTIFY INHIBITORS OF THE UNFOLDED PROTEIN RESPONSE” (THE BOARD OF TRUSTEES OF THE LELAND STANFORD JUNIOR …, priority 2006, published 2009).
# Test system: IRE1α/XBP-1 pathway (XBP1-luciferase reporter)
# Test: High throughput XBP-luciferase reporter screen, tunicamycin/thapsigargin induced (HTS and IRE IC50)
# Format: cell-based, human
# Experimental: Specifically, HT1080 fibrosarcoma cells stably transfected with the unspliced XBP-1-luciferase reporter construct (3000/well) were plated onto a solid white 384 well microplate with a multidrop dispenser (40 μL per well). The plates were then placed into an automated incubator. After 24 hours of growth, a mixture of tunicamycin (1 μg/ml) and thapsigargin (100 nM) inducers were added, and candidate compounds were then added to the plates. After 24 hours, luciferase reagent (10 μl) was added to each well and the plates were read in a Molecular Devices Analyst GT (0.2 second read per well).
# As described above in Example 2, HT1080 fibrosarcoma cells stably expressing the XBP-luciferase reporter were plated in a 384 well microplate (4000 cells/well). After 24 hours, cells were treated with a mixture of tunicamycin (4 μg/ml) and thapsigargin (0.4 μM), followed by the addition of one compound per well (10 μM). We screened a total of 66,000 diverse molecules obtained from Specs, Chembridge and ChemRX. Twenty-four hours post-induction, BriteGlo luciferase substrate (10 μl) was added to each well and the signal intensity determined in a plate reader (0.2 s read per well). […] We retested 431 compounds from the initial screen, and selected 58 compounds for additional analysis, including calculation of IC50 values and inhibition of a CMV-luciferase reporter.
# A. XBP-luciferase reporter construct. Firefly luciferase was inserted downstream of the IRE1α splice site in human XBP-1 to enable the conditional translation of luciferase under ER stress in an IRE1α-dependent manner. B. Selective inhibition of the XBP-luciferase reporter by irestatin 9389. HT1080 human fibrosarcoma cells stably expressing the XBP-luciferase reporter or CMV-luciferase were cultured in the presence of Tm (4 μg/ml) and Tg (0.4 μM) and irestatin 9389 at the indicated concentrations. After 24 hours, luciferase activity was analyzed in an automated plate reader. For each cell line, values are expressed as the percent inhibition of the median for Tm/Tg-treated wells, corrected for background. C. Structure of irestatin 9389. D. XBP-luciferase reporter assay. HT1080 cells stably expressing the XBP-luciferase reporter were exposed to Tm (4 μg/ml) for 24 hours or hypoxia (0.1% oxygen) for 24 or 48 hours, in the presence of DMSO or irestatin 9389 (1 μM) as indicated. Values are expressed as the fold increases over uninduced levels. E. 5X-UPRE reporter assay. HT1080 cells were co-transfected with 5X-UPRE luciferase and SV40-beta-gal reporter plasmids, followed by exposure to Tm or hypoxia as in D. For each condition, luciferase activity is normalized to beta-galactosidase expression levels as an internal control for transfection efficiency. F. Western immunoblot analysis of XBP-1s. HT1080 cells were left untreated (lane 2) or exposed to Tm (4 μg/ml) for 20 hours in the presence of DMSO vehicle (lane 1) or the indicated irestatins (2 μM; lanes 3-6). Cell lysates were resolved by SDS-PAGE and immunoblotting using antisera specific for XBP-1s (top panel) or actin and GAPDH (bottom panel) as loading controls. […] HT1080 cells were treated with DMSO or exposed to irestatin 9389 (2 μM; lane 3) in normoxia (N) or under hypoxia for 24 hours (H 24; lanes 2,3). Cells were harvested, lysed, and analyzed by immunoblotting with antisera specific for HIF-1α (top), XBP-1s (middle) or actin (bottom). H. Northern blot analysis of XBP-1s transcription targets. Cells were exposed to Tm (4 μg/ml) or hypoxia for 24 hours (H 24) in the absence or presence of irestatin 9389 (2 μM). Total RNA was analyzed by Northern blotting using radiolabeled probes specific for P58^IPK or DER-1. Total rRNA is shown as loading control.
# As described above, a HT1080 fibrosarcoma cell line stably expressing a fusion of unprocessed XBP-1 inserted upstream of firefly luciferase has been developed to identify small molecule inhibitors of the IRE1α/XBP-1 signaling module. […]
smiles,measurement,setting,value
Cc1csc(NC(=O)CSc2nc3c(c(C(F)(F)F)c2C#N)CCC3)n1 [Compound 9389],inhibition of IRE1α / IRE1α/XBP-1 signaling module in screen,"HT1080 XBP-luciferase, Tm/Tg",potent and specific inhibition of IRE1α
same,inhibition at 10 µM,"Homo sapiens, 24 h, inhibition of XBP1-luciferase reporter, read-out: Activity Class",75 to 100%
same,IC50,"Homo sapiens, HT-1080, 24 h, HT1080, Tm 4 μg/ml and Tg 0.4 μM, 24 hours, read-out: mean inhibitory concentration (IC50) of XBP-luciferase activity",~25 nM
same,inhibition at 20 µM,"Homo sapiens, IRE IC50 assay, Conc 20 uM",87.1%
